Measurements reported in US20080227853A1, “ANDROGENE MEMBRANE RECEPTOR AGONIST” (BIONATURE E. A. LIMITED, priority 2007, published 2008).

These compounds were tested on T47D human breast cancer cells (assay: Actin cytoskeleton modification in T47D cells (rhodamine-phalloidin staining)). Conditions: T47D cells incubated 24 hours, FIG. 3.
Assay type: cell-based

Row | Compound | modifications of the actin cytoskeleton
1 | Oc1cc(O)c2c(c1)O[C@H](c1ccc(O)c(O)c1)[C@H](O)[C@H]2c1c(O)cc(O)c2c1O[C@H](c1ccc(O)c(O)c1)[C@H](O)C2 [B2] | polymerization and sub-membrane redistribution
2 | Oc1cc(O)c2c(c1)O[C@H](c1ccc(O)c(O)c1)[C@H](O)[C@H]2c1c(O)cc2c(c1O)C[C@@H](O)[C@@H](c1ccc(O)c(O)c1)O2 [B5] | polymerization and sub-membrane redistribution
3 | catechin | polymerization and sub-membrane redistribution
